Measurements from patent publication US12643913B2, “Mcl-1 inhibitor formulations” (AMGEN INC., priority 2020, dated 2026).
Entries after “also recorded” stand apart in the source; their conditions may differ. Where two headings read alike, the source gives them in different places.

Experiments:
[1] = Moisture sorption profile (DVS); type: physicochemical; conditions: by 95% RH; listed as crystalline hydrate form of AMG 397
Procedure: Moisture Sorption: Moisture sorption data was collected using a Surface Measurement Systems DVSAdvantage instrument. Equilibrium criteria were set at ±0.001% weight change in 10 minutes with a maximum equilibrium time of 380 minutes.
Moisture Sorption: Moisture sorption data was collected using a Surface Measurement Systems DVSAdvantage instrument. Equilibrium criteria were set at ±0.001% weight change in 10 minutes with a maximum equilibrium time of 360 minutes.

[2] = Pharmacokinetics after oral gavage to male beagle dogs with different pre-treatments (Amgen study 150528); type: in vivo; conditions: 3 mg/kg PO; for Decrease in exposure / bioavailability with change of stomach pH: beagle dogs; for half-life: read-out: T½ (converted); for bioavailability: compared to Phase 1 of the same form, read-out: Relative % F
Procedure: The pharmacokinetics of AMG 397 were assessed following oral administration to male beagle dogs as either a suspension of the crystalline hydrate form of AMG 397 or an amorphous suspension in 2% HPMC, 0.01% Tween 80. The full protocol is described in Amgen study number 150528. The goal of this study was to determine if the amorphous material would lead to increases in bioavailability and if variability in dosing could be reduced. In addition, oncology patients could be receiving acid-reducing agents as co-medication, so it is important to determine if exposure is reduced with elevated stomach pH and if an amorphous formulation of AMG 397 could overcome the drug-drug interaction (DDI). For the studies below, Form 1 is the crystalline hydrate form of AMG 397 and amorphous is the amorphous form of AMG 397.
(§1) Briefly, during each phase five male beagle dogs were assigned to each group of the study. All animals were fasted for at least eight hours prior to dosing and through the first four hours of blood sample collection for each phase. Food was returned within 30 minutes following collection of the last blood sample at the four-hour collection interval. Each animal in Phase 1, received a single oral (PO) gavage dose of the appropriate test article formulation as outlined in the study design Table 6. Oral gavage dosing formulations were continuously stirred throughout dosing. The gavage tube was rinsed with approximately 10 mL of tap water following dosing (prior to removal of the gavage tube). Following each study phase a 7-day washout period was allowed prior to the dosing of the next phase. The same five dogs were assigned to either group 1 or group 2 formulations for the duration of the study.
(§2) Test Article Administration: A total of 10 male beagle dogs were initially assigned to study. All animals were fasted for at least eight hours prior to dosing and through the first four hours of blood sample collection for each phase, where applicable (food will be returned within 30 minutes following collection of the last blood sample at the four hour collection interval, where applicable). Total fasting time […] 24 hours.
(§3) Each animal in Phase 1, Groups 1 and 2 received a single oral (PO) gavage dose of the appropriate test article formulation as outlined in the following study design table. Oral gavage dosing formulations was continuously stirred throughout dosing. The gavage tube was rinsed with approximately 10 mL of tap water following dosing (prior to removal of the gavage tube). No pre-treatment will be required for Phase 1.
as §3, with “After a 7-day washout period, each” for “Each”, “2,” for “1,”, “land” for “1 and”, “were” for “was”, “Two hours prior to dosing, each animal received two 20 mg (40 mg total) oral tablets of famotidine followed by a 10 mL dose of deionized water.” for “No pre-treatment will be required for Phase 1.”
After another 7-day washout period, each animal in Phase 3, Groups land 2 received a single oral (PO) gavage dose of the appropriate test article formulation as outlined in the following study design table. Oral gavage dosing formulations were continuously stirred throughout dosing. The gavage tube was rinsed with approximately 10 mL of tap water following dosing (prior to removal of the gavage tube). Thirty minutes prior to dosing, each animal received an intramuscular dose of pentagastrin in phosphate buffered saline at a dose level of 0.006 mg/kg and a dose volume of 0.05 mL/kg.
After a final 7-day washout period, each animal in Phase 4, Groups 1 and 2 received a single oral (PO) gavage dose of the appropriate test article formulation as outlined in the following study design table. Oral gavage dosing formulations were continuously stirred throughout dosing. […]

[3] = Clinical observations in the beagle dog PK study; type: in vivo, male beagle dogs; conditions: 3 mg/kg PO, individual dogs, listed as AMG 397 Form 1
Procedure: as §1, §2
Different pre-treatments were assigned for each phase of the study to mimic several scenarios: • 1. No pre-treatment was administered for Phase 1 as it served as a control. • 2. During Phase 2, at 1 hour 54 minutes to 1 hour 58 minutes prior to dose administration, all animals were pretreated with two 20 mg (40 mg total) oral tablets of famotidine followed by a 10 mL dose of deionized water. […] This was used to determine the role of stomach pH on exposure. • 3. During Phases 3 and 4, at 30 to 38 minutes prior to dose administration, all animals were pretreated with a single intramuscular dose of pentagastrin in phosphate buffered saline, pH 7.4, at a dose level of 0.006 mg/kg and a dose volume of 0.05 mL/kg. The pentagastrin dose was used to ensure that the dogs stomach pH was normalized to pH ˜2.0 as it is known that the dogs stomach pH is often higher than that of humans under resting conditions. • 4. In addition, […], at 1 hour 3 minutes to 1 hour 6 minutes prior to dose administration and 4 hours 10 minutes to 4 hours 11 minutes following dose by oral gavage at a dose level of 3 mg/kg and a dose volume of 4 mL/kg. This final phase was used to study if P-gp played a role in absorption.

[4] = Phase 1, no pre-treatment, male beagle dogs
[5] = Phase 2, famotidine pre-treatment (stomach pH ~6.5), male beagle dogs
[6] = male, beagle, dog, plasma, po, 3 mg/kg, Phase 3, pentagastrin pre-treatment (stomach pH ~2.0), male beagle dogs
[7] = male, beagle, dog, plasma, po, 3 mg/kg, Phase 4, pentagastrin pre-treatment + P-gp inhibitor GF120918, male beagle dogs

## CO[C@]1(CN2CCN3CCCC[C@@H]3C2)/C=C/C[C@H](C)[C@@H](C)S(=O)(=O)NC(=O)c2ccc3c(c2)N(C[C@@H]2CC[C@H]21)C[C@@]1(CCCc2cc(Cl)ccc21)CO3 [AMG 397 Crystalline Hydrate]
[1]
  Moisture sorption weight gain: 3.3%
[2]; [4]
  AUCt: 5.5 µM·h
  Cl/F: 41.7 mL/min/kg
  Cmax: 230 nM
  Tmax: 12.4 h
[2]; [5]
  AUCt: 6.3 µM·h
  Cl/F: 43.3 mL/min/kg
  Cmax: 260 nM
[2]; Phase 3, pentagastrin pre-treatment (stomach pH ~2.0), male beagle dogs
  Cl/F: 13.8 mL/min/kg
[2]; listed as crystalline hydrate form of AMG 397, 3 mg/kg
  Decrease in exposure / bioavailability with change of stomach pH: ≤ 2 fold
[2]; listed as crystalline hydrate form, 3 mg/kg
  Decrease in exposure / bioavailability with change of stomach pH: 2 fold
[2]; male, beagle, dog, plasma, po, 3 mg/kg, Phase 1, no pre-treatment, male beagle dogs
  half-life: 17.3 h
[2]; male, beagle, dog, plasma, po, 3 mg/kg, Phase 1, no pre-treatment
  bioavailability: 100%
[2]; male, beagle, dog, plasma, po, 3 mg/kg, Phase 2, famotidine pre-treatment (stomach pH ~6.5), male beagle dogs, read-out: Tmax
  Tmax: 12.8 h
[2]; male, beagle, dog, plasma, po, 3 mg/kg, Phase 2, famotidine pre-treatment (stomach pH ~6.5), male beagle dogs
  half-life: 16.5 h
[2]; male, beagle, dog, plasma, po, 3 mg/kg, Phase 2, famotidine pre-treatment
  bioavailability: 113%
[2]; [6]
  AUC(0-t): 11.3 µM·h
  Cmax: 450 nM
  half-life: 23.3 h
[2]; male, beagle, dog, plasma, po, 3 mg/kg, Phase 3, pentagastrin pre-treatment (stomach pH ~2.0), male beagle dogs, read-out: Tmax
  Tmax: 13.2 h
[2]; [7]
  AUC(0-t): 16.3 µM·h
  CL/F: 5.17 mL/min/kg
  Cmax: 600 nM
  half-life: 25 h
[2]; male, beagle, dog, plasma, po, 3 mg/kg, Phase 4, pentagastrin pre-treatment + P-gp inhibitor GF120918, male beagle dogs, read-out: Tmax
  Tmax: 11.6 h
[3]; Phase 2 (Days 8 to 14), famotidine pre-treatment
  Positive clinical findings (observation): Limb function impaired
[3]; Phase 3 (Days 15 to 21), pentagastrin pre-treatment
  Positive clinical findings (observation): White, frothy vomitus; also recorded: Limb function impaired; also recorded: Wet hair on entire body; also recorded: Inappetence
[3]; Phase 4 (Days 22 to 24), pentagastrin pre-treatment and inhibitor GF120918 pre- and post-treatment
  Positive clinical findings (observation): Large amount of white,
